The test concerns the target recombinant SARS-CoV-2 Mpro (Severe acute respiratory syndrome coronavirus 2, UniProt P0DTD1). As to the kind of experiment: SARS-CoV-2 Mpro inhibition assay (FRET-based proteolytic activity assay). The class given is biochemical. Particulars: for Ki: substrate concentration-independent inhibition constant; for inhibitory activity in the in vitro test: at concentrations below 125 μM.

[1] abbreviates: Ki, 0.2 μM enzyme, 20 μM substrate, compound 125 to 0 μM, 2.5% DMSO.
The mark [2] stands for this setting: 0.2 μM enzyme, 20 μM substrate, compound 125 to 0 μM, 2.5% DMSO, read-out: IC50.
Setting [3] is: 0.2 μM enzyme, 20 μM substrate, compound 125 to 0 μM, 2.5% DMSO, read-out: Ki.

The source of these data is paper PMC9931176, “Discovery of Diverse Natural Products as Inhibitors of SARS-CoV-2 M^pro Protease through Virtual Screening” (Journal of Chemical Information and Modeling, 2021).

By IC50 is commonly meant the concentration that gives 50% inhibition. One may read the Ki as a dissociation constant, usually derived from enzyme kinetics or from competition with a known ligand.

“And” between values parts separate entries of the source, which are not always exact repeats. Identical values can stand only once. Like-named read-outs stand apart in the source and are kept apart here. A value given as a limit tells only on which side of the number the result lay.

For `O=C1c2c(O)cccc2C([C@@H]2O[C@H](CO)[C@@H](O)[C@H](O)[C@H]2O)c2cc(CO)cc(O)c21` (some centres unmarked) [aloin], the 50% inhibitory concentration (IC50) came out at 96 µM. Moreover, the Ki under setting [1] is 82 µM and 34 µM.

For the compound `O=c1cc(-c2ccc(O)c(-c3c(O)cc(O)c4c(=O)cc(-c5ccc(O)cc5)oc34)c2)oc2cc(O)cc(O)c12` [amentoflavone], the 50% inhibitory concentration (IC50) turned out to be 28 µM. Besides, the Ki under setting [1] came out at 10 µM.

`O=C(O[C@@H]1O[C@@H]2COC(=O)c3cc(O)c(O)c(O)c3-c3c(cc(O)c(O)c3O)C(=O)O[C@H]([C@H]1O)[C@@H]2O)c1cc(O)c(O)c(O)c1` [corilagin]: the IC50 is greater than 125 µM. In addition, the inhibition constant Ki under setting [1] is greater than 125 µM.

Take `COc1ccc(-c2cc(=O)c3c(O)cc(O[C@@H]4O[C@H](CO[C@@H]5O[C@@H](C)[C@H](O)[C@@H](O)[C@H]5O)[C@@H](O)[C@H](O)[C@H]4O)cc3o2)cc1` [linarin]: the IC50 was greater than 125 µM and the “inhibitory activity in the in vitro test” value is reported as “lack of activity”. Moreover, under setting [1], the Ki is greater than 125 µM.

For `O=c1cc(-c2ccc(O)c(O)c2)oc2cc(O[C@@H]3O[C@H](CO)[C@@H](O)[C@H](O)[C@H]3O)cc(O)c12` [luteoloside], the half-maximal inhibitory concentration (IC50) was greater than 125 µM. The inhibitory constant (Ki) under setting [1] was greater than 125 µM.

As for `C[C@@H]1O[C@@H](OC[C@H]2O[C@@H](Oc3cc(O)c4c(c3)O[C@H](c3ccc(O)cc3)CC4=O)[C@H](O)[C@@H](O)[C@@H]2O)[C@H](O)[C@H](O)[C@H]1O` [narirutin], the IC50 is greater than 125 µM. The Ki under setting [1] was greater than 125 µM.

Consider `C[C@@H]1O[C@@H](O[C@H]2[C@H](Oc3cc(O)c4c(=O)cc(-c5ccc(O)cc5)oc4c3)O[C@H](CO)[C@@H](O)[C@@H]2O)[C@H](O)[C@H](O)[C@H]1O` [rhoifolin], for which, under setting [2], the IC50 was 230 µM. In addition, under setting [3], the Ki was found to be 82 µM.

`CC1OC(OC2C(c3c(O)cc(O)c4c(=O)cc(-c5ccc(O)cc5)oc34)OC(CO)C(O)C2O)C(O)C(O)C1O` (centres unmarked) [vitexin-2-O-rhamnoside, vitexin-2-O-rhaMnoside]: the half-maximal inhibitory concentration (IC50) was found to be 65 µM. Further, the Ki under setting [1] turned out to be 23 µM.

In the case of `CC1CCC2(C(=O)OC3OC(CO)C(O)C(O)C3O)CCC3(C)C(=CCC4C5(C)CCC(OC6OCC(O)C(O)C6O)C(C)(C)C5CCC43C)C2C1(C)O` (centres unmarked) [ziyu-glycoside I], the IC50 was greater than 125 µM and the “inhibitory activity in the in vitro test” value is on record as “nonactive”. The Ki under setting [1] was greater than 125 µM.

As for proanthocyanidins, the “inhibitory activity in the in vitro test” value was “nonactive”. In addition, the concentration for half-maximal inhibition (IC50) under setting [2] is greater than 125 µM. For the same compound, the inhibition constant (Ki) under setting [3] is greater than 125 µM.
